PubChem BioAssay (NCI)
Several values for one entry are separate records, joined by “and”; a condition that tells them apart may be missing. Equal entries are not always repeated.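 Results reflect a 48-hour exposure of cells in 96-well plates to compound at five concentrations. The concentration for 50% growth inhibition is given as GI50. TGI marks complete inhibition of growth.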

Experiments:
Test in all cases: growth of human tumour cells (NCI), 48 h
[1] = system: MDA-MB-468 breast
[2] = system: NCI-H226 lung
[3] = system: SK-OV-3 ovarian
[4] = system: HOP-62 NSCLC
[5] = system: ACHN renal
[6] = system: T-47D breast
[7] = system: SNB-19 CNS
[8] = system: NCI-H522 lung
[9] = system: MDA-MB-231 breast
[10] = system: TK-10 renal
[11] = system: SK-MEL-28 melanoma
[12] = system: UACC-257 melanoma
[13] = system: A549 NSCLC
[14] = system: KM12 colon
[15] = system: NCI-H23 lung
[16] = system: SNB-75 CNS
[17] = system: SN12C renal
[18] = system: HOP-92 NSCLC
[19] = system: BT-549 breast
[20] = system: DU-145 prostate
[21] = system: IGROV1 ovarian
[22] = system: OVCAR-8 ovarian
[23] = system: NCI/ADR-RES ovarian
[24] = system: PC-3 prostate
[25] = system: A498 renal
[26] = system: MOLT-4 leukemia
[27] = system: SK-MEL-2 melanoma
[28] = system: UO-31 renal
[29] = system: MDA-MB-435
[30] = system: SF-268 CNS
[31] = system: MALME-3M melanoma
[32] = system: NCI-H460 lung
[33] = system: CAKI-1 renal
[34] = system: HS 578T breast
[35] = system: MCF7 breast
[36] = system: RXF 393 renal
[37] = system: K-562 leukemia
[38] = system: SF-539 CNS
[39] = system: U251 CNS
[40] = system: OVCAR-5 ovarian
[41] = system: EKVX NSCLC
[42] = system: UACC-62 melanoma
[43] = system: SK-MEL-5 melanoma
[44] = system: M14 melanoma
[45] = system: COLO 205 colon
[46] = system: SF-295 CNS
[47] = system: OVCAR-4 ovarian

N#Cc1nn(-c2cc(=O)[nH]c3ccc(Cl)cc23)c(N)c1C#N
GI50 [1]: > 100 µM
TGI [1]: > 100 µM

COc1cc(N=Nc2ccc(O)c3ncccc23)c2ncccc2c1
GI50 [1]: 2.27 µM
TGI [1]: 6.64 µM

CN(C)C1CCN(C(=O)c2ccc(NC(=O)Nc3ccc(-c4nc(N5CCOCC5)c5cccn5n4)cc3)cc2)CC1
GI50 [1]: 0.0186 µM
TGI [1]: 0.0866 µM

CN1CCN(c2ccc(Nc3cc(-c4cccc(-n5ccc6cc(C7CC7)cc(F)c6c5=O)c4CO)cn(C)c3=O)nc2)CC1
GI50 [1]: 3.15 µM
TGI [1]: 17.1 µM

COc1ccc(-c2nnc3n(C)c(=O)c4ccccc4n23)cc1N
GI50 [1]: 2.33 µM
TGI [1]: > 100 µM

COc1ccc2nc3ccccc3c(NCc3ccc(F)cc3)c2c1
GI50 [1]: 1.07 µM
TGI [1]: 2.93 µM

Cc1nc(Nc2cccnc2)sc1C(=O)/C=C/c1ccc(F)cc1
GI50 [1]: 3.22 µM
TGI [1]: 11.1 µM

O=C(Nc1ccc(Br)cc1F)c1cc(Cl)ccc1O
GI50 [1]: 0.871 µM
TGI [1]: 4.78 µM

CN(C)CC[C@H](CSc1ccccc1)Nc1ccc(S(=O)(=O)NC(=O)c2ccc(N3CCN(Cc4ccccc4-c4ccc(Cl)cc4)CC3)cc2)cc1[N+](=O)[O-]
GI50 [1]: 1.38 µM
TGI [1]: 3.65 µM

COc1cnc2c(c1)C(=O)c1c-2n(CCCN2CCOCC2)c(=O)c2cc(Cl)ccc12
GI50 [1]: 0.183 µM
TGI [1]: 0.544 µM

O=C(NC[C@H](O)CN1CCc2ccccc2C1)c1cc(NC2COC2)ncn1
GI50 [1]: 4.25 µM
TGI [1]: 24.5 µM

CC(C)(/C=C(\C#N)C(=O)N1CCC[C@@H](n2nc(-c3ccc(Oc4ccccc4)cc3F)c3c(N)ncnc32)C1)N1CCN(C2COC2)CC1
GI50 [1]: 3.63 µM
TGI [1]: 14.9 µM

CCn1c(O)c(/C=N/NC(=O)C(C)c2ccc(CC(C)C)cc2)sc1=S (stereo unspecified)
GI50 [1]: 0.378 µM
TGI [1]: 12 µM

C[C@@H]1C[C@@H]([C@@H](CC2CC(=O)NC(=O)C2)OC(=O)CC(=O)c2ccccc2)C(=O)[C@@H](C)C1
GI50 [1]: 1.17 µM
TGI [1]: > 100 µM

Cc1cc(N[C@@H]2CCC[C@H](Nc3ccnc4cc(Cl)ccc34)C2)nc(N2CCCCCC2)n1
GI50 [1]: 1.4 µM
TGI [1]: 3.11 µM

COC(=O)[C@]12CC[C@@H](C)[C@H](C)[C@@H]1C1=CC[C@@H]3[C@@]4(C)C[C@@H](O)[C@H](O)[C@@](C)(CO)C4=CC[C@@]3(C)[C@]1(C)CC2
GI50 [1]: 14.2 µM
TGI [1]: 29.7 µM

Nc1ncn([C@@H]2O[C@H](CO)[C@@H](O)[C@H]2O)c(=O)n1
GI50 [1]: 1.03 µM
TGI [1]: 5.34 µM

NC(=O)c1c(NC(=O)c2ccccc2)sc2c1CCC(=O)C2
GI50 [1]: 2.46 µM
TGI [1]: 6.59 µM

C[n+]1c(/C=C/c2c(O)ccc3ccccc23)ccc2ccccc21
GI50 [1]: 1.46 µM
TGI [1]: 7.08 µM

Nc1ncc(-c2ccc3ncnc(Nc4ccc(F)c(Cl)c4)c3c2)cn1
GI50 [1]: 0.229 µM
TGI [1]: 0.833 µM

CC(=O)ON1CCCC(P(=O)(OCCSC(=O)C(C)(C)C)OCCSC(=O)C(C)(C)C)C1=O (stereo unspecified)
GI50 [1]: 2.67 µM
TGI [1]: 23.6 µM

CCOC(=O)N[C@H]1CCc2cc(OC)c(OC)c(OC)c2-c2ccc(SC)c(=O)cc21
GI50 [1]: < 0.01 µM
TGI [1]: > 21.3 µM

O=C(/C=C/c1ccc[nH]1)c1ccc(-n2ccc(C(F)(F)F)n2)cc1
GI50 [1]: > 54.6 µM
TGI [1]: > 100 µM

C[C@@H](Nc1c(C#N)cnc2ccc(-c3cnc(Cl)c(NS(C)(=O)=O)c3)cc12)c1ccccc1
GI50 [1]: 0.0745 µM
TGI [1]: 1.23 µM

CNCCOC(=O)/C=C1\CC[C@H]2[C@@H]([C@@H](O)C(=O)[C@@H]3[C@]2(C)CC[C@H](O)[C@]3(C)C(=O)OC)[C@H]1C
GI50 [1]: 1.44 µM
TGI [1]: 3.69 µM

NC(N)=N/N=C/c1c(Cl)cccc1Cl
GI50 [1]: 12.4 µM
TGI [1]: 26.5 µM

O=C(Nc1cc(C(F)(F)F)cc(C(F)(F)F)c1)c1cc(Cl)ccc1O
GI50 [1]: 0.195 µM and 0.238 µM
TGI [1]: 0.715 µM and 0.799 µM

COc1cc(Cl)cc(-c2nn(-c3cccc(NC(=O)c4ccc(N5CCOCC5)c(C(F)(F)F)c4)c3)cc2-c2ccncc2)c1
GI50 [1]: 12.1 µM
TGI [1]: > 100 µM

O=C(Cc1ccc(F)c(Cl)c1)Nc1cc(C2(C(F)(F)F)CC2)nn1CC1CCCCC1
GI50 [1]: 2.68 µM
TGI [1]: 9.28 µM

CCN1CCN(c2cc(C)c3cc(NC(=O)c4ccc(OC)c(OC)c4)ccc3n2)CC1
GI50 [1]: 17.7 µM
TGI [1]: > 100 µM

COC(=O)c1c2c(c(C)[n+]([O-])c1C)C(=O)C=C(NCc1ccc(F)cc1)C2=O
GI50 [1]: 0.284 µM
TGI [1]: 0.978 µM

O=[N+]([O-])c1ccc(-c2nnc(SCc3ccc(O)c4ncccc34)n2-c2ccccc2)cc1
GI50 [1]: 0.577 µM
TGI [1]: 4.46 µM

Clc1cc2c(c(CSc3nc4ccccc4n4cccc34)c1)OCOC2
GI50 [1]: 2.16 µM
TGI [1]: > 100 µM

CN(C)CCCNc1c2ccc(Cl)cc2nc2c1oc1ccc(Cl)cc12
GI50 [1]: 8.02 µM
TGI [1]: 21.8 µM

CCc1cc(OC(=O)N2CCC(N3CCCCC3)CC2)ccc1Nc1cc(-c2ccc(-n3cccn3)cc2)[nH]n1
GI50 [1]: 1.74 µM
TGI [1]: 3.65 µM

Cc1nnc(Nc2ccc(NC(=O)Nc3ccc(Cl)cc3)cc2)c2ccccc12
GI50 [1]: 2.84 µM
TGI [1]: 7.43 µM

CC(NCCC(c1ccccc1)c1ccccc1)c1ccccc1 (stereo unspecified)
GI50 [1]: 1.3 µM
TGI [1]: 2.64 µM

COc1cnc2c(c1)C(=O)c1c-2n(CCCNC2=NCCS2)c(=O)c2cc([N+](=O)[O-])ccc12
GI50 [1]: 0.0283 µM
TGI [1]: 1.53 µM

CCOC(=O)Nc1cc2c(c(N)n1)N=C(c1ccccc1)CO2
GI50 [1]: 0.0427 µM
TGI [1]: 0.394 µM

Cn1cc(-c2cc(N)n3nc(-c4c[nH]c5ccccc45)cc3n2)c2cccnc21
GI50 [1]: 2.22 µM
TGI [1]: 6.42 µM
GI50 [2]: 14.1 µM
TGI [2]: > 100 µM
GI50 [3]: 20.6 µM
TGI [3]: 69.5 µM
GI50 [4]: 6.15 µM
TGI [4]: 59.7 µM
GI50 [5]: 3.77 µM
TGI [5]: 21.1 µM
GI50 [6]: 2.99 µM
TGI [6]: 13.1 µM
GI50 [7]: 14.8 µM
TGI [7]: 31.4 µM
GI50 [8]: 5.54 µM
TGI [8]: 35.9 µM
GI50 [9]: 3.4 µM
TGI [9]: 28.8 µM
GI50 [10]: 17.1 µM
TGI [10]: 59.3 µM
GI50 [11]: 5.33 µM
TGI [11]: 20.2 µM
GI50 [12]: 13.7 µM
TGI [12]: 33.5 µM
GI50 [13]: 4.19 µM
TGI [13]: > 100 µM
GI50 [14]: 3.34 µM
TGI [14]: 14.7 µM
GI50 [15]: 19 µM
TGI [15]: 73.6 µM
GI50 [16]: 2.44 µM
TGI [16]: 44.2 µM
GI50 [17]: 11.6 µM
TGI [17]: 42.1 µM
GI50 [18]: 5.81 µM
TGI [18]: 27.8 µM
GI50 [19]: 11.8 µM
TGI [19]: 33.6 µM
GI50 [20]: 5.09 µM
TGI [20]: > 100 µM
GI50 [21]: 19.1 µM
TGI [21]: 55.9 µM
GI50 [22]: 4.63 µM
TGI [22]: > 100 µM
GI50 [23]: 4.66 µM
TGI [23]: > 100 µM
GI50 [24]: 3.83 µM
TGI [24]: 23.6 µM
GI50 [25]: 23 µM
TGI [25]: 54.8 µM
GI50 [26]: 3.32 µM
TGI [26]: > 100 µM
GI50 [27]: 12.5 µM
TGI [27]: 43.1 µM
GI50 [28]: 5.41 µM
TGI [28]: 26.6 µM
GI50 [29]: 11 µM
TGI [29]: 29.5 µM
GI50 [30]: 17.9 µM
TGI [30]: 81.9 µM
GI50 [31]: 3.25 µM
TGI [31]: 17.1 µM
GI50 [32]: 3.56 µM
TGI [32]: > 100 µM
GI50 [33]: 3.85 µM
TGI [33]: 44.8 µM
GI50 [34]: 20 µM
TGI [34]: > 100 µM
GI50 [35]: 3.3 µM
TGI [35]: > 100 µM
GI50 [36]: 2.28 µM
TGI [36]: 8.2 µM
GI50 [37]: 2.79 µM
TGI [37]: > 100 µM
GI50 [38]: 2.58 µM
TGI [38]: 7.31 µM
GI50 [39]: 3.34 µM
TGI [39]: > 100 µM
GI50 [40]: 11 µM
TGI [40]: 39.1 µM
GI50 [41]: 15.3 µM
TGI [41]: > 100 µM
GI50 [42]: 5.71 µM
TGI [42]: 21.7 µM
GI50 [43]: 7.04 µM
TGI [43]: 20.5 µM
GI50 [44]: 2.63 µM
TGI [44]: 6.79 µM
GI50 [45]: 10.7 µM
TGI [45]: 45.1 µM
GI50 [46]: 1.99 µM
TGI [46]: 4.74 µM
GI50 [47]: 3.42 µM
TGI [47]: > 100 µM

N=c1c2c(-c3ccccc3)c(-c3ccccc3)n(Cc3ccccc3)c2ncn1C1CCC(O)CC1 (stereo unspecified)
GI50 [1]: 0.631 µM
TGI [1]: 3.23 µM

O=c1oc2ccc(-c3ccc(F)cc3F)cc2c(=O)n1-c1cccc(C(F)(F)F)c1
GI50 [1]: 2.28 µM and 1.13 µM
TGI [1]: 5.83 µM and 3.43 µM
